Measured values: patent US20220347118A1, “STABLE MEDICINAL CANNABIDIOL COMPOSITIONS” (CARDIOL THERAPEUTICS INC., priority 2019, published 2022)

Columns and labels:
CB2 receptor = CB2 receptor (Homo sapiens, UniProt P34972); conditions: Proc Natl Acad Sci USA. 2008; 105(26):9099-104; cited from earlier work
Solubility of CBD in BCP = format: physicochemical; conditions: in 1 mL of BCP and its derivatives
Protocol: For example, at least 300 mg of CBD can be dissolved in 1 mL of BCP and its derivatives. The enhanced stability of the CBD provides a composition with an acceptable shelf life and which can provide consistency in dosing and enhanced safety.

Sequence of CB2 receptor (P34972 whole entry): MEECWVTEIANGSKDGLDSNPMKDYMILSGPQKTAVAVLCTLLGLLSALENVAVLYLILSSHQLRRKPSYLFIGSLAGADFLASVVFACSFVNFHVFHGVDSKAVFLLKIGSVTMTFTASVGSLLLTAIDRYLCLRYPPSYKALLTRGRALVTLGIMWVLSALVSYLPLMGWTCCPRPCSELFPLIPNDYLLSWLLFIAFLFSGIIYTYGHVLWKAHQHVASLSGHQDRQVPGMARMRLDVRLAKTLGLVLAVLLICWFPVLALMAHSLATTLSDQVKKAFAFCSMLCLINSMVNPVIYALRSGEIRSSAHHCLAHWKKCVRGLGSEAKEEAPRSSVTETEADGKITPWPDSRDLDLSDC

| SMILES | CB2 receptor binding / functional activity (CB2 receptor) | amount of CBD that can be dissolved in BCP (Solubility of CBD in BCP) |
| --- | --- | --- |
| C=C1CC/C=C(\C)CC[C@@H]2[C@@H]1CC2(C)C [β-caryophyllene, trans-(1R,9S)-8-Methylene-4,11,11-trimethylbicyclo[7.2.0]undec-4-ene] | selectively binds to the CB2 receptor and is a functional CB2 agonist | – |
| C=C(C)[C@@H]1CCC(C)=C[C@H]1c1c(O)cc(CCCCC)cc1O [CBD, cannabidiol] | – | at least 300 mg |
